Experimental data taken from PubChem BioAssay AID248 (DTP/NCI, 2004).
Values joined by “and” are separate entries in the source; they are usually repeats but may differ in a detail not shown here. Equal entries are not always repeated. Toxic doses and inconclusive results are not listed. Rule as the data show it: active = T/C of 150% or more; inactive = T/C below 125%.

System: L1210 leukemia ip in BDF1 mice, survival T/C
Experiment: NCI In Vivo Anticancer Drug Screen. Data for tumor model L1210 Leukemia (intraperitoneal) in B6D2F1 (BDF1) mice
Details: endpoint: mean survival time, higher = longer survival
Outline: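 Transplanted-tumor mice were given test agent; controls received vehicle only. Survival readings from the two groups were divided (treated over control).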

[1] = dose: 25.0 mg/kg/injection, schedule: Q01DX009 (ip), vehicle: saline
[2] = dose: 25.0 mg/kg/injection, schedule: Q04DX003 (ip), vehicle: saline
[3] = dose: 50.0 mg/kg/injection, schedule: Q01DX009 (ip), vehicle: saline
[4] = dose: 50.0 mg/kg/injection, schedule: Q04DX003 (ip), vehicle: saline
[5] = dose: 100.0 mg/kg/injection, schedule: Q04DX003 (ip), vehicle: saline with Tween-80
[6] = dose: 100.0 mg/kg/injection, schedule: Q04DX003 (ip), vehicle: saline
[7] = dose: 25.0 mg/kg/injection, schedule: Q01DX009 (ip), vehicle: Klucel (hydroxypropylcellulose) (HPC)
[8] = dose: 50.0 mg/kg/injection, schedule: Q01DX001 (ip), vehicle: Klucel (hydroxypropylcellulose) (HPC)
[9] = dose: 100.0 mg/kg/injection, schedule: Q01DX001 (ip), vehicle: Klucel (hydroxypropylcellulose) (HPC)
[10] = dose: 100.0 mg/kg/injection, schedule: Q04DX003 (ip), vehicle: Klucel (hydroxypropylcellulose) (HPC)
[11] = dose: 200.0 mg/kg/injection, schedule: Q01DX001 (ip), vehicle: Klucel (hydroxypropylcellulose) (HPC)
[12] = dose: 100.0 mg/kg/injection, schedule: Q01DX009 (ip), vehicle: saline with Tween-80
[13] = dose: 200.0 mg/kg/injection, schedule: Q01DX009 (ip), vehicle: saline with Tween-80
[14] = dose: 200.0 mg/kg/injection, schedule: Q04DX003 (ip), vehicle: saline with Tween-80
[15] = dose: 400.0 mg/kg/injection, schedule: Q01DX009 (ip), vehicle: saline with Tween-80
[16] = dose: 400.0 mg/kg/injection, schedule: Q04DX003 (ip), vehicle: saline with Tween-80
[17] = dose: 100.0 mg/kg/injection, schedule: Q01DX001 (ip), vehicle: carboxymethylcellulose (CMC)
[18] = dose: 200.0 mg/kg/injection, schedule: Q01DX001 (ip), vehicle: carboxymethylcellulose (CMC)
[19] = dose: 400.0 mg/kg/injection, schedule: Q01DX001 (ip), vehicle: carboxymethylcellulose (CMC)
[20] = dose: 200.0 mg/kg/injection, schedule: Q04DX003 (ip), vehicle: Klucel (hydroxypropylcellulose) (HPC)
[21] = dose: 400.0 mg/kg/injection, schedule: Q04DX003 (ip), vehicle: Klucel (hydroxypropylcellulose) (HPC)
[22] = dose: 100.0 mg/kg/injection, schedule: Q04DX002 (ip), vehicle: Klucel (hydroxypropylcellulose) (HPC)
[23] = dose: 200.0 mg/kg/injection, schedule: Q04DX002 (ip), vehicle: Klucel (hydroxypropylcellulose) (HPC)
[24] = dose: 400.0 mg/kg/injection, schedule: Q04DX002 (ip), vehicle: Klucel (hydroxypropylcellulose) (HPC)

Measured: T/C

CN(C)CC/C=C1\c2ccccc2CN(C)c2ccccc21
inactive: dose: 6.25 mg/kg/injection, schedule: Q01DX009 (ip), vehicle: saline with Tween-80 94 % of control | dose: 6.25 mg/kg/injection, schedule: Q01DX009 (ip), vehicle: saline 108 % of control | dose: 12.5 mg/kg/injection, schedule: Q01DX009 (ip), vehicle: saline with Tween-80 104 % of control | dose: 12.5 mg/kg/injection, schedule: Q01DX009 (ip), vehicle: saline 107 % of control | dose: 25.0 mg/kg/injection, schedule: Q01DX009 (ip), vehicle: saline with Tween-80 88 % of control | [1] 94 % of control | dose: 25.0 mg/kg/injection, schedule: Q04DX003 (ip), vehicle: saline with Tween-80 88 % of control | [2] 97 % of control | [3] 94 % of control | dose: 50.0 mg/kg/injection, schedule: Q04DX003 (ip), vehicle: saline with Tween-80 96 % of control | [4] 97 % of control | dose: 100.0 mg/kg/injection, schedule: Q01DX009 (ip), vehicle: saline 105 % of control | [5] 94 % of control | [6] 101 % of control

CC(C)=NN=C(N)N
inactive: dose: 15.0 mg/kg/injection, schedule: Q01DX Z (ip), vehicle: carboxymethylcellulose (CMC) 100 % of control | dose: 15.0 mg/kg/injection, schedule: Q01DX Z (ip), vehicle: saline 107 % of control | dose: 30.0 mg/kg/injection, schedule: Q01DX Z (ip), vehicle: carboxymethylcellulose (CMC) 101 % of control | dose: 30.0 mg/kg/injection, schedule: Q01DX Z (ip), vehicle: saline 101 % of control | dose: 60.0 mg/kg/injection, schedule: Q01DX Z (ip), vehicle: carboxymethylcellulose (CMC) 96 % of control and 106 % of control | dose: 60.0 mg/kg/injection, schedule: Q01DX Z (ip), vehicle: saline 95 % of control | dose: 60.0 mg/kg/injection, schedule: Q01DX Z (oral), vehicle: saline 92 % of control | dose: 120.0 mg/kg/injection, schedule: Q01DX Z (ip), vehicle: carboxymethylcellulose (CMC) 93 % of control and 95 % of control | dose: 120.0 mg/kg/injection, schedule: Q01DX Z (ip), vehicle: saline 95 % of control | dose: 120.0 mg/kg/injection, schedule: Q01DX Z (oral), vehicle: carboxymethylcellulose (CMC) 106 % of control | dose: 120.0 mg/kg/injection, schedule: Q01DX Z (oral), vehicle: saline 109 % of control | dose: 240.0 mg/kg/injection, schedule: Q01DX Z (ip), vehicle: carboxymethylcellulose (CMC) 101 % of control | dose: 240.0 mg/kg/injection, schedule: Q01DX Z (ip), vehicle: saline 88 % of control | dose: 240.0 mg/kg/injection, schedule: Q01DX Z (oral), vehicle: carboxymethylcellulose (CMC) 102 % of control | dose: 240.0 mg/kg/injection, schedule: Q01DX Z (oral), vehicle: saline 97 % of control | dose: 480.0 mg/kg/injection, schedule: Q01DX Z (oral), vehicle: carboxymethylcellulose (CMC) 116 % of control | dose: 480.0 mg/kg/injection, schedule: Q01DX Z (oral), vehicle: saline 92 % of control

CCSCC1OC(n2cnc3c(N)nc(F)nc32)C(O)C1O (stereo not given)
inactive: dose: 25.0 mg/kg/injection, schedule: Q01DX001 (ip), vehicle: Klucel (hydroxypropylcellulose) (HPC) 98 % of control | [7] 98 % of control | dose: 25.0 mg/kg/injection, schedule: Q04DX003 (ip), vehicle: Klucel (hydroxypropylcellulose) (HPC) 97 % of control | [8] 104 % of control | dose: 50.0 mg/kg/injection, schedule: Q01DX009 (ip), vehicle: Klucel (hydroxypropylcellulose) (HPC) 96 % of control | dose: 50.0 mg/kg/injection, schedule: Q04DX003 (ip), vehicle: Klucel (hydroxypropylcellulose) (HPC) 103 % of control | [9] 97 % of control and 102 % of control | [10] 92 % of control | [11] 86 % of control

Nc1n[nH]c(N)n1.[Ni]
inactive: [12] 101 % of control | [5] 113 % of control | [13] 111 % of control | [14] 103 % of control | [15] 104 % of control | [16] 98 % of control

C/C=C/c1ccc2ccccc2c1
inactive: [17] 104 % of control | [18] 96 % of control | [19] 104 % of control

O=C(CCl)Nc1ncn[nH]1
inactive: dose: 75.0 mg/kg/injection, schedule: Q01DX001 (ip), vehicle: carboxymethylcellulose (CMC) 101 % of control | dose: 150.0 mg/kg/injection, schedule: Q01DX001 (ip), vehicle: carboxymethylcellulose (CMC) 97 % of control | dose: 300.0 mg/kg/injection, schedule: Q01DX001 (ip), vehicle: carboxymethylcellulose (CMC) 107 % of control

CC(OC(=O)Oc1ccccc1)c1ccccc1 (stereo not given)
inactive: [10] 98 % of control | [20] 107 % of control | [21] 98 % of control

O=C(Nc1cccc(CSc2nc3nc[nH]c(=O)c3[nH]2)c1)Oc1ccccc1
inactive: [8] 96 % of control | [9] 91 % of control | [11] 98 % of control

CN1C(CCl)Nc2cc(Cl)c(S(N)(=O)=O)cc2S1(=O)=O (stereo not given)
inactive: dose: 100.0 mg/kg/injection, schedule: Q01DX001 (ip), vehicle: saline 95 % of control | dose: 200.0 mg/kg/injection, schedule: Q01DX001 (ip), vehicle: saline 90 % of control | dose: 400.0 mg/kg/injection, schedule: Q01DX001 (ip), vehicle: saline 96 % of control

Cn1c(Cl)c(C(=O)O)c2ccccc21
inactive: dose: 50.0 mg/kg/injection, schedule: Q04DX002 (ip), vehicle: Klucel (hydroxypropylcellulose) (HPC) 97 % of control | [22] 97 % of control | [23] 101 % of control

S=C=NCc1ccc(Cl)cc1
inactive: dose: 6.25 mg/kg/injection, schedule: Q01DX009 (ip), vehicle: Klucel (hydroxypropylcellulose) (HPC) 103 % of control | dose: 12.5 mg/kg/injection, schedule: Q01DX009 (ip), vehicle: Klucel (hydroxypropylcellulose) (HPC) 92 % of control | [7] 95 % of control

CN(C)/N=N/c1ccn[nH]1
inactive: dose: 50.0 mg/kg/injection, schedule: Q01DX005 (ip), vehicle: saline 105 % of control

CCN(CC)CC(O)c1ccccc1 (stereo not given)
inactive: [1] 100 % of control | [2] 98 % of control | [3] 98 % of control | [4] 93 % of control | [6] 100 % of control

CC(C)=CCC/C(C)=C/CN1C(=O)CC(C)=C(C)C1=O
inactive: [12] 97 % of control | [5] 95 % of control | [13] 95 % of control | [14] 104 % of control | [15] 95 % of control | [16] 95 % of control

Cc1nc(C[N+](C)(C)C)c2cnccn12
inactive: [6] 102 % of control

O/N=C1\c2ccccc2-c2cc(Cl)ccc21
inactive: [17] 94 % of control | [18] 109 % of control | [19] 103 % of control

Cc1ccc(/C(=C\c2ccccc2)C(=O)c2ccccc2)cc1
inactive: dose: 100.0 mg/kg/injection, schedule: Q01DX009 (ip), vehicle: Klucel (hydroxypropylcellulose) (HPC) 95 % of control | [10] 93 % of control | dose: 200.0 mg/kg/injection, schedule: Q01DX009 (ip), vehicle: Klucel (hydroxypropylcellulose) (HPC) 92 % of control | [20] 93 % of control | dose: 400.0 mg/kg/injection, schedule: Q01DX009 (ip), vehicle: Klucel (hydroxypropylcellulose) (HPC) 95 % of control | [21] 101 % of control

O=[N+]([O-])c1cc(S(=O)(=O)c2ccc(S)c([N+](=O)[O-])c2)ccc1S
inactive: [22] 89 % of control | [23] 92 % of control | [24] 92 % of control

O=C(O)CSc1ccc2ccccc2c1
inactive: [22] 89 % of control | [23] 111 % of control | [24] 108 % of control
